The values that follow come from patent US10544150B2, “NK-3 receptor selective antagonist compounds, pharmaceutical composition and methods for use in NK-3 receptors mediated disorders” (Ogeda SA, priority 2010, dated 2020).

Bounds are passed on as bounds.

In experiment [1] the target is human NK-3 receptor (Homo sapiens (Human), UniProt P29371). As to the kind of experiment: 3H-SB222200 binding competition assay with human NK-3 receptor. The note with it: 3H-SB222200 displacement, CHO cell membranes expressing human NK3 receptor; read-out: Ki range. In a few lines: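 Radioligand displacement: 5 nM tritiated SB222200 competed by varying compound concentrations on recombinant CHO membranes bearing human NK3, buffer pH 7.4 with HEPES, NaCl, CaCl2, MgCl2, BSA and saponin. Filter-bound radioactivity quantified; calculated Ki given as ranges from +++ (<500 nM) to # (>5 μM).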

Experiment [2] deals with circulating levels of luteinizing hormone (LH). As to the kind of experiment: Castrated male rat model, circulating levels of luteinizing hormone (LH). The experiment is classed as in vivo. As to conditions: castrated male SD rats, single intravenous dose (156 and 144: 10 mg/kg; 71: 15 mg/kg; 114: 20 mg/kg), 60 min post dosing (156 also 120 min), vs. baseline.

Sequence of human NK-3 receptor (P29371 whole entry): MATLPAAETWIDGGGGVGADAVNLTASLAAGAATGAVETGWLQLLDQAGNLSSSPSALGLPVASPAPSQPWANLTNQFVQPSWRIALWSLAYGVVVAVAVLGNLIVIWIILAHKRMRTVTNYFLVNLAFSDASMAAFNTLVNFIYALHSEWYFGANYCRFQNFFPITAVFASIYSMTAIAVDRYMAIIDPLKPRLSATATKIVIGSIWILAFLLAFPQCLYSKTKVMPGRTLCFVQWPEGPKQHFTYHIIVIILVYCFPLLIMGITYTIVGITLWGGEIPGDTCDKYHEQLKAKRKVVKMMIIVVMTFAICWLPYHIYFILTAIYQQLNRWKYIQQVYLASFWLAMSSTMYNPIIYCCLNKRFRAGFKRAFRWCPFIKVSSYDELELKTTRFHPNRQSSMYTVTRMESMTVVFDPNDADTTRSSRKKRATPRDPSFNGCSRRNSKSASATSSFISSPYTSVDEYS

In the case of `C[C@@H]1c2nnc(-c3ccc4ccccc4n3)n2CCN1C(=O)c1ccc(-c2cccs2)cc1` [Compound 144, (R)-(8-methyl-3-(quinolin-2-yl)-5,6-dihydro-[1,2,4]triazolo[4,3-a]pyrazin-7(8H)-yl)(4-(thiophen-2-yl)phenyl)methanone], the Ki in experiment [1] was under 500 nM. Besides, the “effect on LH serum levels” value in experiment [2] is on record as “significantly suppressed GnRH-mediated elevation of LH”. Regarding `C[C@@H]1c2nnc(-c3csc(-c4ccc(F)cc4)n3)n2CCN1C(=O)c1ccc(F)cc1` [Compound 71, (R)-(4-fluorophenyl)(3-(2-(4-fluorophenyl)thiazol-4-yl)-8-methyl-5,6-dihydro-[1,2,4]triazolo[4,3-a]pyrazin-7(8H)-yl)methanone], the Ki in experiment [1] was under 500 nM. For the same molecule, in experiment [2], the “effect on LH serum levels” value was “significantly suppressed GnRH-mediated elevation of LH”. Taken in the same sequence, the figures for `CC1c2nnc(-c3coc(-c4ccccc4)n3)n2CCN1C(=O)c1ccc(-c2cccs2)cc1` (stereo not shown) [Compound 114, (8-methyl-3-(2-phenyloxazol-4-yl)-5,6-dihydro-[1,2,4]triazolo[4,3-a]pyrazin-7(8H)-yl)(4-(thiophen-2-yl)phenyl)methanone] were under 500 nM and “significantly suppressed GnRH-mediated elevation of LH”. `Cc1scnc1-c1nnc2n1CCN(C(=O)c1ccc(-c3cccs3)cc1)C2` [Compound 275, (3-(5-methylthiazol-4-yl)-5,6-dihydro-[1,2,4]triazolo[4,3-a]pyrazin-7(8H)-yl)(4-(thiophen-2-yl)phenyl)methanone]: the inhibition constant (Ki) in experiment [1] was over 5000 nM. Consider `O=C(c1ccc(-c2cccs2)cc1)N1CCn2c(nnc2-c2csc(-c3ccccc3)n2)C1` [Compound 54, (3-(2-phenylthiazol-4-yl)-5,6-dihydro-[1,2,4]triazolo[4,3-a]pyrazin-7(8H)-yl)(4-(thiophen-2-yl)phenyl)methanone], for which the inhibition constant Ki in experiment [1] is under 500 nM.

Turning to `COCCn1nc(-c2ccccc2)cc1-c1nnc2n1CCN(C(=O)c1ccc(-c3cccs3)cc1)C2` [Compound 254, (3-(1-(2-methoxyethyl)-3-phenyl-1H-pyrazol-5-yl)-5,6-dihydro-[1,2,4]triazolo[4,3-a]pyrazin-7(8H)-yl)(4-(thiophen-2-yl)phenyl)methanone], the inhibition constant (Ki) in experiment [1] is under 500 nM. Same read-out and setting: then `O=C(c1ccc(F)cc1)N1CCn2c(nnc2-c2nc(-c3ccccc3)cs2)C1` [Compound 57, (4-fluorophenyl)(3-(4-phenylthiazol-2-yl)-5,6-dihydro-[1,2,4]triazolo[4,3-a]pyrazin-7(8H)-yl)methanone], with under 500 nM.

Take `O=C(c1cc(-c2ccc(Cl)c(Cl)c2)n[nH]1)N1CCn2c(nnc2-c2ccccn2)C1` [Compound 4, (3-(3,4-dichlorophenyl)-1H-pyrazol-5-yl)(3-(pyridin-2-yl)-5,6-dihydro-[1,2,4]triazolo[4,3-a]pyrazin-7(8H)-yl)methanone]: in experiment [1], the Ki was 1000 to 5000 nM. Turning to `Cc1ccc(-c2nc(-c3nnc4n3CCN(C(=O)c3ccc(-c5cccs5)cc3)C4)cs2)cc1` [Compound 191, (4-(thiophen-2-yl)phenyl)(3-(2-(p-tolyl)thiazol-4-yl)-5,6-dihydro-[1,2,4]triazolo[4,3-a]pyrazin-7(8H)-yl)methanone], the inhibition constant (Ki) in experiment [1] was over 5000 nM. Turning to `O=C(c1ccc(-c2ccccc2)cc1)N1CCn2c(nnc2-c2csc(-c3ccccc3)n2)C1` [Compound 26, [1,1′-biphenyl]-4-yl(3-(2-phenylthiazol-4-yl)-5,6-dihydro-[1,2,4]triazolo[4,3-a]pyrazin-7(8H)-yl)methanone], the Ki in experiment [1] was under 500 nM. Consider `O=C(c1ccc(F)cc1)N1CCn2c(nnc2-c2nc3c(s2)CCCC3)C1` [Compound 27, (4-fluorophenyl)(3-(4,5,6,7-tetrahydrobenzo[d]thiazol-2-yl)-5,6-dihydro-[1,2,4]triazolo[4,3-a]pyrazin-7(8H)-yl)methanone], for which the Ki in experiment [1] was under 500 nM. Still for that read-out and setting: then `C[C@H]1c2nnc(-c3csc(-c4ccc(F)cc4F)n3)n2CCN1C(=O)c1ccc(-c2cccs2)cc1` [Compound 165, (S)-(3-(2-(2,4-difluorophenyl)thiazol-4-yl)-8-methyl-5,6-dihydro-[1,2,4]triazolo[4,3-a]pyrazin-7(8H)-yl)(4-(thiophen-2-yl)phenyl)methanone], with under 500 nM.

Turning to `CC1c2nnc(-c3csc(-c4ccc(F)cc4)n3)n2CCN1C(=O)c1cc(F)c(F)c(F)c1` (stereo not shown) [Compound 113, (3-(2-(4-fluorophenyl)thiazol-4-yl)-8-methyl-5,6-dihydro-[1,2,4]triazolo[4,3-a]pyrazin-7(8H)-yl)(3,4,5-trifluorophenyl)methanone], the inhibition constant (Ki) in experiment [1] was under 500 nM. On the same count and under the same terms, then `CC1c2nnc(-c3csc(N4CCOCC4)n3)n2CCN1C(=O)c1ccc(-c2ccccc2)cc1` (stereo not shown) [Compound 46, [1,1′-biphenyl]-4-yl(8-methyl-3-(2-morpholinothiazol-4-yl)-5,6-dihydro-[1,2,4]triazolo[4,3-a]pyrazin-7(8H)-yl)methanone], with under 500 nM; and `O=C(c1cc(-c2ccc(C(F)(F)F)cc2)n[nH]1)N1CCn2c(nnc2-c2ccccn2)C1` [Compound 17, (3-(pyridin-2-yl)-5,6-dihydro-[1,2,4]triazolo[4,3-a]pyrazin-7(8H)-yl)(3-(4-(trifluoromethyl)phenyl)-1H-pyrazol-5-yl)methanone], with 1000 to 5000 nM; and `CC1c2nnc(-c3csc(N4CCOCC4)n3)n2CCN1C(=O)c1ccc(-c2cccs2)cc1` (stereo not shown) [Compound 56, (8-methyl-3-(2-morpholinothiazol-4-yl)-5,6-dihydro-[1,2,4]triazolo[4,3-a]pyrazin-7(8H)-yl)(4-(thiophen-2-yl)phenyl)methanone], with under 500 nM. Still for that read-out and setting: then `CC1CN(c2nc(-c3nnc4n3CCN(C(=O)c3ccc(-c5cccs5)cc3)C4)cs2)CCO1` (stereo not shown) [Compound 273, (3-(2-(2-methylmorpholino)thiazol-4-yl)-5,6-dihydro-[1,2,4]triazolo[4,3-a]pyrazin-7(8H)-yl)(4-(thiophen-2-yl)phenyl)methanone], with under 500 nM; and `O=C(c1ccc(-c2cccs2)cc1)N1CCn2c(nnc2-c2csc(CS(=O)(=O)c3ccc(Cl)cc3)n2)C1` [Compound 198, (3-(2-(((4-chlorophenyl)sulfonyl)methyl)thiazol-4-yl)-5,6-dihydro-[1,2,4]triazolo[4,3-a]pyrazin-7(8H)-yl)(4-(thiophen-2-yl)phenyl)methanone], with 1000 to 5000 nM; and `O=C(c1ccc(-c2cccs2)cc1)N1CCn2c(nnc2-c2csc(-c3ccccc3O)n2)C1` [Compound 262, (3-(2-(2-hydroxyphenyl)thiazol-4-yl)-5,6-dihydro-[1,2,4]triazolo[4,3-a]pyrazin-7(8H)-yl)(4-(thiophen-2-yl)phenyl)methanone], with under 500 nM.
